Data from patent US8618151B2, “Inhibitors of HCV NS5A” (Presidio Pharmaceuticals, Inc., priority 2008, dated 2013).

The compounds below were run on HCV genotype 1b replicon (assay: HCV replicon assay (1b_Huh-Luc/Neo-ET cell line, luciferase readout)). Conditions: Hepatitis C virus, Huh-7, 72 h, read-out: Inhibition of HCV genotype 1b.
Assay type: cell-based
How it was run: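 1b_Huh-Luc/Neo-ET Huh 7 cells carrying a bicistronic genotype 1b replicon; compounds added in triplicate the day after plating, 72 h incubation, then Bright-Glo luciferase read-out. Signal expressed as % of control; EC50 from curve fit, repeated several times.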
`COC(=O)N[C@H](C(=O)N1CCC[C@H]1c1ncc(-c2ccc(-c3nc4ccc(-c5cnc([C@@H]6CCCN6C(=O)[C@H](NC(=O)OC)c6ccccc6)[nH]5)cc4o3)cc2)[nH]1)C(C)C` [compound 249] was tested, and the EC50 was less than 1 nM.
For `CC(C)(C)OC(=O)N1CCCC1c1ncc(-c2ccc(-c3nc4cc(-c5cnc([C@@H]6CCCN6C(=O)OCc6ccccc6)[nH]5)ccc4s3)cc2)[nH]1` (stereo partly shown) [compound 250], the EC50 was 10 to 999 nM.
`CNC(=O)N[C@@H](C(=O)N1CCC[C@H]1c1ncc(-c2ccc3nc(-c4ccc(-c5cnc([C@@H]6CCCN6C(=O)[C@@H](NC(=O)OC)C(C)C)[nH]5)cc4)oc3c2)[nH]1)c1ccccc1` [compound 251] was tested, and the EC50 was less than 1 nM.
`CCNC(=O)N[C@@H](C(=O)N1CCC[C@H]1c1ncc(-c2ccc3nc(-c4ccc(-c5cnc([C@@H]6CCCN6C(=O)[C@@H](NC(=O)OC)C(C)C)[nH]5)cc4)oc3c2)[nH]1)c1ccccc1` [compound 252] showed an EC50 of less than 1 nM.
`COC(=O)N[C@H](C(=O)N1CCC[C@H]1c1ncc(-c2ccc(-c3nc4ccc(-c5cnc([C@@H]6CCCN6C(=O)[C@@H](NC(=O)OC)[C@@H](C)OC)[nH]5)cc4o3)cc2)[nH]1)C(C)C` [compound 253] was tested, and the EC50 was less than 1 nM.
In the case of `COC(=O)N[C@H](C(=O)N1CCC[C@H]1c1ncc(-c2ccc3nc(-c4ccc(-c5cnc([C@@H]6CCCN6C(=O)[C@H](NC(=O)OC(C)(C)C)c6ccccc6)[nH]5)cc4)oc3c2)[nH]1)C(C)C` [compound 254], the EC50 is reported as less than 1 nM.
Work on `COC(=O)N[C@H](C(=O)N1CCC[C@H]1c1ncc(-c2ccc3nc(-c4ccc(-c5cnc([C@@H]6CCCN6C(=O)[C@H](NC(=O)OC)c6ccccc6)[nH]5)cc4)oc3c2)[nH]1)C(C)C` [compound 255] yielded an EC50 of less than 1 nM.
In the case of `CNC(=O)N[C@@H](C(=O)N1CCC[C@H]1c1ncc(-c2ccc(-c3nc4ccc(-c5cnc([C@@H]6CCCN6C(=O)[C@@H](NC(=O)OC)C(C)C)[nH]5)cc4o3)cc2)[nH]1)c1ccccc1` [compound 256], the EC50 is reported as less than 1 nM.
`CCNC(=O)N[C@@H](C(=O)N1CCC[C@H]1c1ncc(-c2ccc(-c3nc4ccc(-c5cnc([C@@H]6CCCN6C(=O)[C@@H](NC(=O)OC)C(C)C)[nH]5)cc4o3)cc2)[nH]1)c1ccccc1` [compound 257] was tested, and the EC50 was less than 1 nM.
`COC(=O)N[C@H](C(=O)N1CCC[C@H]1c1ncc(-c2ccc(-c3ccc4nc(-c5cnc([C@@H]6CCCN6C(=O)[C@@H](NC(=O)OC)C(C)C)[nH]5)sc4c3)cc2)[nH]1)C(C)C` [compound 258] gave an EC50 of less than 1 nM.
For `COC(=O)N[C@H](C(=O)N1CCC[C@H]1c1ncc(-c2ccc3oc(-c4ccc(-c5cnc([C@@H]6CCCN6C(=O)[C@@H](NC(=O)OC)C6CCOCC6)[nH]5)cc4)nc3c2)[nH]1)C(C)C` [compound 259], the EC50 was less than 1 nM.
`COC(=O)N[C@H](C(=O)N1CCC[C@H]1c1ncc(-c2ccc3oc(-c4ccc(-c5cnc([C@@H]6CCCN6C(=O)[C@H](NC(=O)OC)c6ccccc6)[nH]5)cc4)nc3c2)[nH]1)C(C)C` [compound 260] gave an EC50 of less than 1 nM.
`COC(=O)N[C@H](C(=O)N1CCC[C@H]1c1ncc(-c2ccc3ccc(C45CCC(c6cnc([C@@H]7CCCN7C(=O)[C@@H](NC(=O)OC)C(C)C)[nH]6)(CC4)CC5)cc3c2)[nH]1)C(C)C` [compound 261] gave an EC50 of 1 to 9.9 nM.
With `COC(=O)N[C@H](C(=O)N1CCC[C@H]1c1nc(-c2ccc3nc(C45CCC(c6cnc([C@@H]7CCCN7C(=O)[C@@H](NC(=O)OC)C(C)C)[nH]6)(CC4)CC5)ccc3c2)c[nH]1)C(C)C` [compound 262] the EC50 was less than 1 nM.
Work on `COC(=O)N[C@@H](C(=O)N1CCC[C@H]1c1nc(-c2ccc3nc(C45CCC(c6cnc([C@@H]7CCCN7C(=O)[C@H](NC(=O)OC)c7ccccc7)[nH]6)(CC4)CC5)ccc3c2)c[nH]1)c1ccccc1` [compound 263] yielded an EC50 of less than 1 nM.
`CN(C)[C@@H](C(=O)N1CCC[C@H]1c1nc(-c2ccc3nc(C45CCC(c6cnc([C@@H]7CCCN7C(=O)[C@@H](c7ccccc7)N(C)C)[nH]6)(CC4)CC5)ccc3c2)c[nH]1)c1ccccc1` [compound 264] was tested, and the EC50 was 1 to 9.9 nM.
For `COC(=O)N[C@H](C(=O)N1CCC[C@H]1c1nc(-c2ccc3nc(C45CCC(c6cnc([C@@H]7CCCN7C(=O)[C@@H](NC(=O)OC)C7CC7)[nH]6)(CC4)CC5)ccc3c2)c[nH]1)C1CC1` [compound 265], the EC50 was less than 1 nM.
For `COC(=O)N[C@@H](C)C(=O)N1CCC[C@H]1c1nc(-c2ccc3nc(C45CCC(c6cnc([C@@H]7CCCN7C(=O)[C@H](C)NC(=O)OC)[nH]6)(CC4)CC5)ccc3c2)c[nH]1` [compound 266], the EC50 was less than 1 nM.
Compound `c1cc2nc(C34CCC(c5cnc([C@@H]6CCCN6)[nH]5)(CC3)CC4)ccc2cc1-c1c[nH]c([C@@H]2CCCN2)n1` [compound 267] has an EC50 greater than 1000 nM.
Compound `CC(C)(C)OC(=O)N1CCCC1c1ncc(C23CCC(c4ccc5cc(-c6c[nH]c([C@@H]7CCCN7C(=O)OC(C)(C)C)n6)ccc5n4)(CC2)CC3)[nH]1` (stereo partly shown) [compound 268] has an EC50 of 10 to 999 nM.
`COC(=O)N[C@H](C(=O)N1CCC[C@H]1c1nc(-c2ccc3c(c2)CCN(c2c(F)cc(-c4cnc([C@@H]5CCCN5C(=O)[C@@H](NC(=O)OC)C(C)C)[nH]4)cc2F)C3)c[nH]1)C(C)C` [compound 269] gave an EC50 of less than 1 nM.
For `COC(=O)N[C@@H](C(=O)N1CCC[C@H]1c1nc(-c2ccc3c(c2)CCN(c2c(F)cc(-c4cnc([C@@H]5CCCN5C(=O)[C@H](NC(=O)OC)c5ccccc5)[nH]4)cc2F)C3)c[nH]1)c1ccccc1` [compound 270], the EC50 was less than 1 nM.
Work on `COC(=O)N[C@H](C(=O)N1CCC[C@H]1c1nc(-c2ccc3c(c2)CCN(c2c(F)cc(-c4cnc([C@@H]5CCCN5C(=O)[C@@H](NC(=O)OC)C5CC5)[nH]4)cc2F)C3)c[nH]1)C1CC1` [compound 271] yielded an EC50 of less than 1 nM.
Work on `COC(=O)N[C@@H](C)C(=O)N1CCC[C@H]1c1nc(-c2ccc3c(c2)CCN(c2c(F)cc(-c4cnc([C@@H]5CCCN5C(=O)[C@H](C)NC(=O)OC)[nH]4)cc2F)C3)c[nH]1` [compound 272] yielded an EC50 of less than 1 nM.
In the case of `COC(=O)N[C@@H](C)C(=O)N1CCC[C@H]1c1nc(-c2ccc3nc(N4CCC(c5cnc([C@@H]6CCCN6C(=O)[C@H](C)NC(=O)OC)[nH]5)CC4)ccc3c2)c[nH]1` [compound 273], the EC50 is reported as 1 to 9.9 nM.
With `COC(=O)N[C@H](C(=O)N1CCC[C@H]1c1nc(-c2ccc3nc(N4CCC(c5cnc([C@@H]6CCCN6C(=O)[C@@H](NC(=O)OC)C6CC6)[nH]5)CC4)ccc3c2)c[nH]1)C1CC1` [compound 274] the EC50 was 1 to 9.9 nM.
Compound `COC(=O)N[C@H](C(=O)N1CCC[C@H]1c1nc(-c2ccc3nc(N4CCC(c5cnc([C@@H]6CCCN6C(=O)[C@@H](NC(=O)OC)C(C)C)[nH]5)CC4)ccc3c2)c[nH]1)C(C)C` [compound 275] has an EC50 of less than 1 nM.
In the case of `COC(=O)N[C@H](C(=O)N1CCC[C@H]1c1nc2ccc(-c3ccc4cc(-c5ccc6nc([C@@H]7CCCN7C(=O)[C@@H](NC(=O)OC)C(C)C)[nH]c6c5)ccc4c3)cc2[nH]1)C(C)C` [compound 276], the EC50 is reported as less than 1 nM.
In the case of `COC(=O)N[C@H](C(=O)N1CCC[C@H]1c1nc2ccc(-c3cccc4c(-c5ccc6nc([C@@H]7CCCN7C(=O)[C@@H](NC(=O)OC)C(C)C)[nH]c6c5)cccc34)cc2[nH]1)C(C)C` [compound 277], the EC50 is reported as less than 1 nM.
`COC(=O)N[C@@H](C)C(=O)N1CCC[C@H]1c1nc2ccc(-c3ccc4cc(-c5ccc6nc([C@@H]7CCCN7C(=O)[C@H](C)NC(=O)OC)[nH]c6c5)ccc4c3)cc2[nH]1` [compound 278] showed an EC50 of less than 1 nM.
In the case of `COC(=O)N[C@H](C(=O)N1CCC[C@H]1c1nc2ccc(-c3ccc4cc(-c5ccc6nc([C@@H]7CCCN7C(=O)[C@@H](NC(=O)OC)C7CCOCC7)[nH]c6c5)ccc4c3)cc2[nH]1)C1CCOCC1` [compound 279], the EC50 is reported as less than 1 nM.
